Here are results for one compound from PubChem BioAssay (NCI).

Holding throughout (assay): DTP human tumour cell line panel, 48 h
Test [1] has as its system ACHN renal.
Test [2] has as its system CAKI-1 renal.
Test [3] deals with EKVX NSCLC.
In test [4] the test system is HS 578T breast.
For test [5], the system named is IGROV1 ovarian.
Test [6] concerns KM12 colon.
For test [7], the system named is MDA-MB-435.
Test [8] deals with OVCAR-5 ovarian.
The subject of test [9] is RXF 393 renal.
In test [10] the test system is SR leukemia.

The structures appear in SMILES notation.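 Cultured in 96-well plates, cells were exposed to test compound for 48 hours across five concentrations. The concentration for 50% growth inhibition is given as GI50. TGI: concentration producing complete growth inhibition.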 Bounds are passed on as bounds.

Broadly, the TGI is the concentration giving total growth inhibition. A high value points to lower sensitivity of the cells. As usually defined, the GI50 is the concentration at which growth is held to half of that of the control. As to `CC1CC[P+](c2ccccc2)(c2ccccc2)c2c1ccc1ccccc21` (stereo not drawn), the TGI was greater than 81.5 µM in test [1]; 32.6 µM in test [2]; greater than 100 µM in [3]; 7.66 µM in test [4]; 21.2 µM in test [5]; 14.8 µM in test [6]. The TGI in test [7] is 16.4 µM; in [8] it was greater than 100 µM; in [9], 43.5 µM; in [10], greater than 100 µM. Also, the values for the GI50 in test [3], in [5] and in test [10] were 92 µM, 4.42 µM and 9.65 µM, respectively.
